The results in this text go back to article PMC5168863, “Synthesis and functionalization of protease-activated nanoparticles with tissue plasminogen activator peptides as targeting moiety and diagnostic tool for pancreatic cancer” (Journal of Nanobiotechnology, 2016).

One test addresses T1, Gal-4 (Homo sapiens, UniProt P56470).
T1 sequence (P56470 1-323): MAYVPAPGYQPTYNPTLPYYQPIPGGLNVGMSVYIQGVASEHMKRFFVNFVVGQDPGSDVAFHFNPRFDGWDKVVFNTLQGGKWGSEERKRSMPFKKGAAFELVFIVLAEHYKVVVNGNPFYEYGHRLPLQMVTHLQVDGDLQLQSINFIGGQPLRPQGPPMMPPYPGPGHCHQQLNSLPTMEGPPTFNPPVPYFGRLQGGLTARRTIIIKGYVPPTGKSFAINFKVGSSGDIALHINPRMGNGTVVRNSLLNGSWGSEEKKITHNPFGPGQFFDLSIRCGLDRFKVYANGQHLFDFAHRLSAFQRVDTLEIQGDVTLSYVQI
Nature of the test: Microscale thermophoresis (MST) binding of t-PA peptides to galectin-4. Particulars: for Kd: MST, human galectin; for Fold diff.: versus rh t-PA protein. How it is done:
(§1) To investigate the binding efficiency of the short t-PA-ligands [10 to 29-AA-long peptides fluorescein or rhodamine-labelled] to galectin-1, we applied the microscale thermophoresis (MST) technology which allows quantitative analysis of protein interactions in solutions. By using MST, individual affinity constants between the different t-PA peptides and galectins (Gal-1, -3, -4) previously characterized to be over-expressed in PDAC were determined and compared to the recombinant human t-PA protein (rh t-PA) as presented in Table 2.
(§2) In order to investigate the binding properties of the modified t-PA-peptides [10-29 AA-long fluorescence-labeled peptides] as ligands to galectins, the microscale thermophoresis (MST) (Monolith NT.115 MST instrument, NanoTemper Technologies GmbH, Munich Germany) technology was employed. MST allows a quantitative analysis of protein interactions in solution and is based on the directed motion of molecules in temperature gradients generated locally by an infrared laser, whereas the molecular mobility in the temperature gradient is analyzed via fluorescence. MST is highly sensitive to all types of binding-induced changes of molecular properties like protein size, charge, hydration shell or conformation. The binding modes such as dimerization, cooperativity, and competition are quantifiable and adaptable to diverse requirements of different biomolecules. Therefore, MST turned out as an ideal method for the interaction studies of t-PA and t-PA-derived peptides with galectins.

Another test concerns the target Gal-1 (Homo sapiens, UniProt P09382). The test can be described thus: Microscale thermophoresis (MST) binding of t-PA peptides to galectin-1. To be noted: for Kd: MST, human galectin; for Fold diff.: versus rh t-PA protein. As to the method: as §1, §2
A further test concerns the target Gal-3 (Homo sapiens, UniProt P17931). The test can be described thus: Microscale thermophoresis (MST) binding of t-PA peptides to galectin-3. To be noted: for Kd: MST, human galectin; for Fold diff.: versus rh t-PA protein. How it is done: as §1, §2
On the technique in general: In MST a laser heats a spot of the sample, and binding alters the fluorescence response.

A further test has as its system Su.86.86. Nature of the test: Flow cytometry, binding of peptide/NPs to Su.86.86 cells. It counts as cell-based, human. How it is done: (§3) With the first flow cytometry experiments we analyzed the nanoparticle-core (Core CAN-maghemite (Ce-Fe2O3) and the t-PA-peptide1-lactose (t-PApep1lac) linked to the core. This was to determine whether the fluorescein-labelled t-PA-peptides, covalently linked to NPs, bind to Panc-1 and Su86.86 cells and if the cells are able to internalize the NPs. In a parallel set of experiments the binding of the t-PA-peptide alone (without linkage to NPs) to the pancreatic cancer cells was assessed. For the experimental set-up a concentration of t-PA peptide of 1.25 µM was applied and the cells were exposed to the NPs with and without peptides for different incubation periods of 2, 6, 12 and 24 h.
(§4) Flow cytometry (fluorescent-activated cell sorting/FACS) analysis was used to determine the binding of fluorescein-labeled t-PA-pep1Lac and t-PApep1-vectorized nanoparticles (CAN-Mag@PNPs-tPApep1Lac and CAN-Mag@PNPs-PEG-REGAcp-PEG/tPA-pep1Lac) on the surfaces of Panc-1 and SU.86.86 cells. Additional FACS analyses were performed to monitor concentration and time-dependent binding efficiency and changes caused by addition of competitors (galactose, lactose) or in the presence of active MMP-9, which cleaves the REGAcp sequence. Deshielding of CAN-Mag@PNPs-PEG-REGAcp-PEG/tPA-pep1Lac was carried out by pre-activated MMP-9 (20 µM proMMP-9 and 200 nM of catalytic domain cdMMP-3 in 100 mM Tris, 100 mM NaCl, 10 mM CaCl2, pH 7.4 for 2 h at 37 °C). The active MMP-9 (50 µl, 10 µM) was incubated in the presence of 450 µl NPs and subsequently added to cells. Nanoparticle-exposed cell monolayers (of 2 × 10^5 cells/2 ml medium in 6 well plates), with or without treatment, were harvested 2, 12, 24 h post-exposure using 1 mM EDTA–phosphate-buffered saline (PBS) detachment buffer, (Miltenyi GmbH, Bergisch Gladbach, Germany), washed 3 times in PBS, incubated for 45 min on ice and subsequently subjected to analysis in a BD™ LSR II flow cytometer and Software Program: BD FACSDiva 7.0 (Becton–Dickinson,)
On the technique in general: In flow cytometry, cells or beads pass a laser one at a time.

The test system of the next test is Panc-1. Nature of the test: Flow cytometry, binding of peptide/NPs to Panc-1 cells. It counts as cell-based, human. As to the method:
as §3, §4

Residues, ends and D or L forms follow the SMILES beside them. *: point of attachment. 5FAM = O=C1OC2(c3ccc(O)cc3Oc3cc(O)ccc32)c2ccc(C(=O)*)cc21

Sequence of Gal-1 (P09382 whole entry): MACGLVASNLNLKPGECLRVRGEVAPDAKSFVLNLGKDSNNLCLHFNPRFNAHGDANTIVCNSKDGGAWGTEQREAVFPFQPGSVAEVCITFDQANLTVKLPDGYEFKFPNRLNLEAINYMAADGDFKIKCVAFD
Sequence of Gal-3 (P17931 whole entry): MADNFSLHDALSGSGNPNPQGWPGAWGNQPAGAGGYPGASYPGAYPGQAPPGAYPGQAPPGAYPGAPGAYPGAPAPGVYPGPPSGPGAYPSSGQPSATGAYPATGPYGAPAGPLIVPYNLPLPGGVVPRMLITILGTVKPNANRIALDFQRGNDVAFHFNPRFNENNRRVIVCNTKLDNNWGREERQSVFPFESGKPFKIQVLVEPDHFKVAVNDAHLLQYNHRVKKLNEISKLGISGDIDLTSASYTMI

The term Kd denotes the equilibrium constant for the complex coming apart. A low value points to a tighter complex. On to `CC(C)C[C@H](NC(=O)[C@H](C)NC(=O)[C@H](CO)NC(=O)[C@H](CO)NC(=O)[C@H](CC(N)=O)NC(=O)[C@H](Cc1c[nH]c2ccccc12)NC(=O)[C@H](CC(N)=O)NC(=O)[C@@H](NC(=O)[C@H](CS)NC(=O)[C@H](CCC(=O)O)NC(=O)[C@H](C)NC(=O)CNC(=O)[C@H](CO)NC(=O)[C@H](CCC(=O)O)NC(=O)[C@H](C)NC(=O)[C@@H](NC(=O)[C@H](CO)NC(=O)[C@H](Cc1c[nH]c2ccccc12)NC(=O)[C@@H](NC(=O)CNC(=O)c1ccc2c(c1)C(=O)OC21c2ccc(O)cc2Oc2cc(O)ccc21)[C@@H](C)O)[C@@H](C)O)[C@@H](C)O)C(=O)N[C@@H](C)C(=O)N[C@@H](CCC(N)=O)C(=O)N[C@@H](CCCCN)C(=O)N1CCC[C@H]1C(=O)N[C@@H](Cc1ccc(O)cc1)C(=O)N[C@@H](CO)C(=O)NCC(=O)N[C@@H](CCCNC(=N)N)C(=O)O` [t-PA-pep-1] (5FAM-GTWSTAESGAECTNWNSSALAQKPYSGR-OH), for which the Kd was 34 µM on Gal-4 (N-Fluo. labelled ligand), 141 µM at Gal-1 (N-Fluo. labelled ligand) and 272 µM at Gal-3 (N-Fluo. labelled ligand). Further, the Fold diff. on Gal-4 (N-Fluo. labelled ligand) was 1.5; on Gal-1 (N-Fluo. labelled ligand) it was −28.7; at Gal-3 (N-Fluo. labelled ligand), −35.4.
On to `CC(C)C[C@H](NC(=O)[C@H](C)NC(=O)[C@H](CO)NC(=O)[C@H](CO)NC(=O)[C@H](CO[C@@H]1O[C@H](CO)[C@@H](O[C@@H]2O[C@H](CO)[C@H](O)[C@H](O)[C@H]2O)[C@H](O)[C@H]1O)NC(=O)[C@H](Cc1c[nH]c2ccccc12)NC(=O)[C@H](CC(N)=O)NC(=O)[C@@H](NC(=O)[C@H](CS)NC(=O)[C@H](CCC(=O)O)NC(=O)[C@H](C)NC(=O)CNC(=O)[C@H](CO)NC(=O)[C@H](CCC(=O)O)NC(=O)[C@H](C)NC(=O)[C@@H](NC(=O)[C@H](CO)NC(=O)[C@H](Cc1c[nH]c2ccccc12)NC(=O)[C@@H](NC(=O)CN)[C@@H](C)O)[C@@H](C)O)[C@@H](C)O)C(=O)N[C@@H](C)C(=O)N[C@@H](CCC(N)=O)C(=O)N[C@@H](CCCCN)C(=O)N1CCC[C@H]1C(=O)N[C@@H](Cc1ccc(O)cc1)C(=O)N[C@@H](CO)C(=O)NCC(=O)N[C@@H](CCCNC(=N)N)C(=O)N[C@@H](CCCCNC(=O)c1ccc2c(c1)C(=O)OC21c2ccc(O)cc2Oc2cc(O)ccc21)C(=O)O` [t-PA-pep-1lac], for which the “Percentage of cells labeled with nanoparticles” value came to 25.7% with Su.86.86 (Su.86.86, 2 h incubation); 45.8% in the test on Su.86.86 (Su.86.86, 12 h incubation); 36.6% in the test with Su.86.86 (Su.86.86, 24 h incubation); 2.6% with Panc-1 (Panc-1, 2 h incubation); 87.6% with Panc-1 (Panc-1, 12 h incubation); 86.3% in the test with Panc-1 (Panc-1, 24 h incubation). For the same molecule, the Kd amounted to 12.7 µM on Gal-4 (C-Fluo. labelled ligand), 0.2 µM on Gal-1 (C-Fluo. labelled ligand), 0.286 µM on Gal-1 (N-Fluo. labelled ligand) and 0.73 µM on Gal-3 (C-Fluo. labelled ligand). Also, the Fold diff. on Gal-4 (C-Fluo. labelled ligand) was 4.03; at Gal-1 (C-Fluo. labelled ligand), 25; at Gal-1 (N-Fluo. labelled ligand), 17; at Gal-3 (C-Fluo. labelled ligand), 10.4.
With “rh t-PA protein: recombinant human t-PA protein [reference compound]”, the Kd turned out to be 51.2 µM with Gal-4 (N-Fluo. labelled ligand), 4.92 µM with Gal-1 (N-Fluo. labelled ligand) and 7.68 µM with Gal-3 (N-Fluo. labelled ligand). Also, the Fold diff. with Gal-4 (N-Fluo. labelled ligand), with Gal-1 (N-Fluo. labelled ligand) and in the test with Gal-3 (N-Fluo. labelled ligand) was 1 in each case.
